Reference: patent publication US20230278972A1, “SUBSTITUTED HALOALKYL SULFONANILIDE HERBICIDES” (FMC Corporation, priority 2020, published 2023)

Legend:
Assay type in all cases: in vivo
[1] = test system: blackgrass (Alopecurus myosuroides); experiment: Test A1 preemergence, blackgrass
How it was run: (§1)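 Both timings started from seed in a loam-sand blend. Preemergence pots got a directed soil application immediately; postemergence pots were sprayed when seedlings had one or two leaves and stood 2–10 cm. Each compound was prepared in a non-phytotoxic solvent plus surfactant.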

corn (Zea mays) [2] = experiment: Test A1 preemergence, corn
How it was run: (§2)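 Pre: seeds in loam/sand blend, directed soil spray. Post: potted plants, same soil, 2–10 cm, 1–2 leaf stage. Chemicals in non-phytotoxic solvent + surfactant for both.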

[3] = test system: Foxtail, Giant (giant foxtail, Setaria faberi); experiment: Test A1 preemergence, Foxtail, Giant
How it was run: as §1

[4] = test system: goosegrass (Eleusine indica); experiment: Test A1 preemergence, goosegrass
How it was run: as §1

kochia (Bassia scoparia) [5] = experiment: Test A1 preemergence, kochia
How it was run: as §1

[6] = test system: Oat, Wild (wild oat, Avena fatua); experiment: Test A1 preemergence, Oat, Wild
How it was run: as §1

[7] = test system: Pigweed, Palmer (palmer amaranth, palmer pigweed, Amaranthus palmeri); experiment: Test A1 preemergence, Pigweed, Palmer
How it was run: as §1

[8] = test system: ragweed (common ragweed, Ambrosia artemisiifolia); experiment: Test A1 preemergence, ragweed
How it was run: as §1

[9] = test system: Ryegrass, Italian (Italian ryegrass, Lolium multiflorum); experiment: Test A1 preemergence, Ryegrass, Italian
How it was run: as §1

soybean (Glycine max) [10] = experiment: Test A1 preemergence, soybean
How it was run: as §1

[11] = test system: wheat (Triticum aestivum); experiment: Test A1 preemergence, wheat
How it was run: as §1

[12] = test system: blackgrass (Alopecurus myosuroides); experiment: Test A1 postemergence, blackgrass; details: Postemergence, 0 to 100 scale (0 no effect, 100 complete control)
How it was run: (§3)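 Plants were grown in a loam soil/sand blend, with test chemicals formulated in a non-phytotoxic solvent mixture containing surfactant. Preemergence treatment (corn) was a directed soil spray at planting. Postemergence treatment was applied to plants 2 to 10 cm tall at the one- to two-leaf stage.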

corn (Zea mays) [13] = experiment: Test A1 postemergence, corn; details: Postemergence
How it was run: as §1

[14] = test system: Foxtail, Giant (giant foxtail, Setaria faberi); experiment: Test A1 postemergence, Foxtail, Giant; details: Postemergence
How it was run: as §3

[15] = test system: goosegrass (Eleusine indica); experiment: Test A1 postemergence, goosegrass; details: Postemergence
How it was run: as §3

kochia (Bassia scoparia) [16] = experiment: Test A1 postemergence, kochia; details: Postemergence
How it was run: as §3

[17] = test system: Oat, Wild (wild oat, Avena fatua); experiment: Test A1 postemergence, Oat, Wild; details: Postemergence
How it was run: as §2

[18] = test system: Pigweed, Palmer (palmer amaranth, palmer pigweed, Amaranthus palmeri); experiment: Test A1 postemergence, Pigweed, Palmer; details: Postemergence
How it was run: as §2

[19] = test system: ragweed (common ragweed, Ambrosia artemisiifolia); experiment: Test A1 postemergence, ragweed; details: Postemergence
How it was run: as §2

[20] = test system: Ryegrass, Italian (Italian ryegrass, Lolium multiflorum); experiment: Test A1 postemergence, Ryegrass, Italian; details: Postemergence
How it was run: as §3

soybean (Glycine max) [21] = experiment: Test A1 postemergence, soybean; details: Postemergence
How it was run: as §3

[22] = test system: wheat (Triticum aestivum); experiment: Test A1 postemergence, wheat; details: Postemergence
How it was run: as §3

[23] = test system: galium (catchweed bedstraw, Galium aparine); experiment: Test A1 postemergence, galium; details: Postemergence
How it was run: as §3

[24] = test system: horseweed (Erigeron canadensis); experiment: Test A1 postemergence, horseweed; details: Postemergence
Description: Seeds of plant species selected from, blackgrass (Alopecurus myosuroides), corn (Zea mays), Foxtail, Giant (giant foxtail, Setaria faberi), goosegrass (Eleusine indica), kochia (Bassia scoparia), Oat, Wild (wild oat, Avena fatua), Pigweed, Palmer (palmer amaranth, palmer pigweed, Amaranthus palmeri), ragweed (common ragweed, Ambrosia artemisiifolia), Ryegrass, Italian (Italian ryegrass, Lolium multiflorum), soybean (Glycine max), and wheat (Triticum aestivum) were planted into a blend of loam soil and sand and treated preemergence with a directed soil spray using test chemicals formulated in a non-phytotoxic solvent mixture which included a surfactant. At the same time, plants selected from these crop and weed species and also galium (catchweed bedstraw, Galium aparine) and horseweed (Erigeron canadensis) were planted in pots containing the same blend of loam soil and sand and treated with postemergence applications of test chemicals formulated in the same manner. Plants ranged in height from 2 to 10 cm and were in the one- to two-leaf stage for the postemergence treatment. […] A dash (-) response means no test result.

[25] = test system: barnyardgrass (Echinochloa crus-galli); experiment: Test B1 flooded paddy test, barnyardgrass; details: 250 g ai/ha, Flood, applied to paddy water, 2-leaf stage, visually evaluated after 10 to 14 days
Description: (§4) A dash (-) response means no test result.

[26] = test system: ducksalad (Heteranthera limosa); experiment: Test B1 flooded paddy test, ducksalad; details: 250 g ai/ha, Flood, applied to paddy water, 2-leaf stage, visually evaluated after 10 to 14 days
Description: as §4

rice (Oryza sativa) = experiment: Test B1 flooded paddy test, rice; details: 250 g ai/ha, Flood, applied to paddy water, 2-leaf stage, visually evaluated after 10 to 14 days
Description: as §4

[27] = 31 g ai/ha, 0 to 100 scale (0 no effect, 100 complete control)
[28] = 125 g ai/ha, 0 to 100 scale, 0 no effect, 100 complete control
[29] = 31 g ai/ha, 0 to 100 scale (0 no effect, 100 complete control), 10 days

## Cc1c(NS(=O)(=O)C(F)(F)F)cc(C(=O)N2CCOCC2)c(C)c1Cl [Compound 290]
[1]; [27]
  Plant response rating, Blackgrass: 20
[1]; [28]
  Plant response rating, Blackgrass: 70
Corn (Zea mays) [2]; [27]
  Plant response rating, Corn: 0
Corn (Zea mays) [2]; [28]
  Plant response rating, Corn: 20
[3]; [27]
  Plant response rating, Foxtail, Giant: 0
[3]; [28]
  Plant response rating, Foxtail, Giant: 90
[4]; [27]
  Plant response rating, Goosegrass: 70
[4]; [28]
  Plant response rating, Goosegrass: 90
Kochia (Bassia scoparia) [5]; [27]
  Plant response rating, Kochia: 20
Kochia (Bassia scoparia) [5]; [28]
  Plant response rating, Kochia: 30
[6]; [27]
  Plant response rating, Oat, Wild: 0
[6]; [28]
  Plant response rating, Oat, Wild: 20
[7]; [27]
  Plant response rating, Pigweed, Palmer: 0
[7]; [28]
  Plant response rating, Pigweed, Palmer: 50
[8]; [27]
  Plant response rating, Ragweed: 20
[8]; [28]
  Plant response rating, Ragweed: 60
[9]; [27]
  Plant response rating, Ryegrass, Italian: 30
[9]; [28]
  Plant response rating, Ryegrass, Italian: 60
Soybean (Glycine max) [10]; [27]
  Plant response rating, Soybean: 0
Soybean (Glycine max) [10]; [28]
  Plant response rating, Soybean: 0
[11]; [27]
  Plant response rating, Wheat: 0
[11]; [28]
  Plant response rating, Wheat: 40
[12]; 31 g ai/ha, 10 days
  Plant response rating, Blackgrass: 0
[12]; 125 g ai/ha
  Plant response rating, Blackgrass: 0
Corn (Zea mays) [13]; [29]
  Plant response rating, Corn: 0
Corn (Zea mays) [13]; 125 g ai/ha, 0 to 100 scale
  Plant response rating, Corn: 20
[14]; [29]
  Plant response rating, Foxtail, Giant: 0
[14]; 125 g ai/ha, 0 to 100 scale
  Plant response rating, Foxtail, Giant: 70
[15]; [29]
  Plant response rating, Goosegrass: 30
[15]; 125 g ai/ha, 0 to 100 scale
  Plant response rating, Goosegrass: 70
Kochia (Bassia scoparia) [16]; [29]
  Plant response rating, Kochia: 20
Kochia (Bassia scoparia) [16]; 125 g ai/ha, 0 to 100 scale
  Plant response rating, Kochia: 20
[17]; [29]
  Plant response rating, Oat, Wild: 0
[17]; 125 g ai/ha, 0 to 100 scale
  Plant response rating, Oat, Wild: 10
[18]; [29]
  Plant response rating, Pigweed, Palmer: 0
[18]; 125 g ai/ha, 0 to 100 scale
  Plant response rating, Pigweed, Palmer: 20
[19]; [29]
  Plant response rating, Ragweed: 60
[19]; 125 g ai/ha, 0 to 100 scale
  Plant response rating, Ragweed: 70
[20]; [29]
  Plant response rating, Ryegrass, Italian: 0
[20]; 125 g ai/ha, 0 to 100 scale
  Plant response rating, Ryegrass, Italian: 50
Soybean (Glycine max) [21]; [29]
  Plant response rating, Soybean: 0
Soybean (Glycine max) [21]; 125 g ai/ha, 0 to 100 scale
  Plant response rating, Soybean: 20
[22]; [29]
  Plant response rating, Wheat: 0
[22]; 125 g ai/ha, 0 to 100 scale
  Plant response rating, Wheat: 60
[23]; [29]
  Plant response rating, Galium: 80
[23]; 125 g ai/ha, 0 to 100 scale
  Plant response rating, Galium: 90
[24]; [29]
  Plant response rating, Horseweed: 70
[24]; 125 g ai/ha, 0 to 100 scale
  Plant response rating, Horseweed: 90
[25]
  Plant response rating, Barnyardgrass (0 to 100 scale, 0 is no effect, 100 is complete control): 0
[26]
  Plant response rating, Ducksalad (0 to 100 scale, 0 is no effect, 100 is complete control): 65
Rice (Oryza sativa)
  Plant response rating, Rice (0 to 100 scale, 0 is no effect, 100 is complete control): 0
